The source of these data is patent US20090035287A1, “ATRIAL NATRIURETIC PEPTIDE (ANP) SPLICE VARIANTS AND METHODS OF USING SAME” (priority 2005, published 2009).

Experiment [1] concerns spontaneously hypertensive rats (SHR). The experiment can be described thus: Renal and cardiovascular effects in anesthetized spontaneously hypertensive rats, 30-min intravenous infusion. Type of experiment: in vivo, rat. Conditions: for heart rate change: i.v. 30-min infusion. As for the experimental part:
The assay was performed with anesthetized spontaneously hypertensive rats (SHR) following intravenous administration of the various ANP-proteins by a 30-min infusion.
Male Wistar-Okamoto derived spontaneously hypertensive rats (SHR) provided by National Laboratory Animal Center were used. Space allocation for 6 rats was 45×23×15 cm. All animals were maintained in a controlled temperature (23° C.-24° C.) and humidity (60%-70%) environment with 12 hours light dark cycles for at least one week in MDS Pharma Services—Taiwan Laboratory prior to use. Free access to standard lab chow (Laboratory Rodent Diet MF-18; Oriental Yeast Co., Ltd. Japan) and RO water was granted. All aspects of this work including housing, experimentation and disposal of animals were performed in general accordance with the Guide for the Care and Use of Laboratory Animals (National Academy Press, Washington, D.C., 1996).
Groups of 5 male rats (SHR) weighing 250-300 g were employed. Rats were anaesthetized with Inactin (120 mg/kg i.p.). The left carotid artery, jugular vein, and bladder were cannulated with polyethylene (PE50) catheters. The arterial cannula was connected via a Statham (P 23×L) pressure transducer to a NEC/San-Ei Type 366 polygraph for direct mean arterial blood pressure measurements. Heart rate was derived from pulse pressure signals and monitored on a Data Acquisition and Analytic System (Power Lab 8/SP, AD Instruments, Australia). The body temperature was kept at 37° C. using a thermostat-controlled hot plate. The animals were primed with 1 ml 2.5% dextrose+0.45% NaCl intravenously, followed by continuous infusion of the same solution at a rate of 2.4 ml/hr with an infusion pump throughout the experiments. After an equilibration period of 30 min, a 30-min control urine sample was collected. Test compounds were dissolved in 2.5% dextrose+0.45% NaCl and delivered by infusion for 30 min at 2.4 ml/hr. […] The infusion rate was 2.4 ml/hr. Urine samples were collected through the catheter during infusion of peptides and in the two 30-min post-peptide periods. Urinary Na^+ concentration was measured with an atomic absorption spectrometer. All values represent mean±SEM and Dunnett's test was applied for comparison between corresponding time points for each drug-treated and control groups. Differences were considered significant at P<0.05.

Experiment [2] deals with T1, membrane-bound guanylyl cyclase (Rattus norvegicus, UniProt P18910).
T1 construct: from tissue; host or cells: lung of Wistar rats (membrane preparation)
T1 sequence (P18910 29-1057): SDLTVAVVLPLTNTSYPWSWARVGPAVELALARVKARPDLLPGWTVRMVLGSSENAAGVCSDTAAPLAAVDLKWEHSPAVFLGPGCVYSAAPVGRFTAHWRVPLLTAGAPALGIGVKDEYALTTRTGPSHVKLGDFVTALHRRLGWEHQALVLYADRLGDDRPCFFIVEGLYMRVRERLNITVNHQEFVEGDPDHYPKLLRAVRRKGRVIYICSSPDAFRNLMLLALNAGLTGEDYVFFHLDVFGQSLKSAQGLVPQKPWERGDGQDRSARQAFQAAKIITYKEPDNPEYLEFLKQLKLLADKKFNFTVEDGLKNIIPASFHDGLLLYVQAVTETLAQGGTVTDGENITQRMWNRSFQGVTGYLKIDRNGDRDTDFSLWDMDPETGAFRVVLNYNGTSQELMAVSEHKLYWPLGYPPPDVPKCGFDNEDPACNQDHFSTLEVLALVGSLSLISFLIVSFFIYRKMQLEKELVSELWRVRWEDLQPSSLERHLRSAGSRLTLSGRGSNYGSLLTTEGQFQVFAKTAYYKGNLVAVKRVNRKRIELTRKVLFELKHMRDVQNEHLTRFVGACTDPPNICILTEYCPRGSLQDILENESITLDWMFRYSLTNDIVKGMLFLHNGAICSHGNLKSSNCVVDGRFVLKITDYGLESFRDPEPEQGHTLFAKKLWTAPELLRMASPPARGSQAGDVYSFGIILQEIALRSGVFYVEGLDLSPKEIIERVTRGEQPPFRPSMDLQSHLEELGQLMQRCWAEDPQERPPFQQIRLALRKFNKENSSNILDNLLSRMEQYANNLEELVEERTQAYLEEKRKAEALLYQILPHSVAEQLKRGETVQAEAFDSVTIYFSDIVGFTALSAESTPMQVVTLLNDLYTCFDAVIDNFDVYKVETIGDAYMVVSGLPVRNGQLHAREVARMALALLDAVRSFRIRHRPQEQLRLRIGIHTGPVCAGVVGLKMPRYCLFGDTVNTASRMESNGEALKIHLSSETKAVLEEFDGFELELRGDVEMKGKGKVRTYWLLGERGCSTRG
Description: cGMP accumulation after activation of membrane-bound guanylyl cyclase in isolated rat lung membranes. In kind it is biochemical. As for the experimental part:
The agonist-like activity of the ANP variant peptides was evaluated by in vitro assays designed to measure cGMP accumulation after activation of membrane-bound guanylyl cyclase. Guanylyl cyclases (GC) are a family of enzymes (EC 4.6.1.2) that catalyse the formation of the second messenger cyclic GMP (cGMP) from GTP. Activation of GCs leads to an increase in the concentration of the intracellular messenger molecule cGMP. GCs are subdivided into soluble GCs and GCs that are membrane-bound and linked to a receptor. Activation occurs through binding of nitric oxide (NO) and peptide hormones, respectively. Six different isoforms of membrane-bound GC (GC-A, GC-B, GC-C, GC-D, GC-E and GC-F) are known. The guanylyl cyclase A (GC-A) isoform acts as the receptor for the natriuretic peptides ANP and BNP.
As ANP is known to stimulate GC-A, the effect of known and variant ANP peptides on guanlyl cyclase was examined. The procedure employed was essentially as described in Glover V, et al., 1995 Life Sci. 57(22): 2073-2079; Nashida T, Imai A and Shimomura H (2000), Mol Cell Biochem. 208(1-2): 27-35. Briefly, membrane-bound guanylyl cyclase isolated from the lung of Wistar rats was used. […] The reaction was terminated by addition of 1 N HCl and the supernatant evaluated for cGMP level by EIA. Enzyme activity was determined spectrophotometrically by measuring the formation of cGMP. […]

Experiment [3] has as its target T2, membrane-bound guanylyl cyclase isolated from the lung of Wistar rats (rat, UniProt P18910 29-1057).
T2 sequence (looked up): T1 sequence (P18910 29-1057)
The experiment can be described thus: cell-based or functional assay.

[4] abbreviates: i.v. infusion 1 μg/kg/min × 30 min.
The mark [5] stands for this setting: i.v. infusion 3 μg/kg/min × 30 min.
Where [6] appears, read: i.v. infusion 1 and 3 μg/kg/min × 30 min.

Bridge positions count the residues as written; N and C are the ends. Ends that are not written are not given here.

For the molecule “TAPRSLRRSSCFGGRMDRIGAQSGLGCNSFRELNWLRPLMEQPLLSLME (disulfide 11-27) [ANP-49]”, the heart rate change result in experiment [1] is “decrease in heart rate”. Further, the “absolute change of mean arterial pressure (MAP-infusion minus MAP-baseline)” value in experiment [1] (setting [4]) is recorded as −1 mmHg; in experiment [1] (setting [5]), −23 mmHg. For the same molecule, the figures for the “urine volume (diuresis)” value in experiment [1] (setting [4]) and in experiment [1] (setting [5]) were “such effect was not observed” and “even higher increase in urine volume relative to Carperitide”, respectively. In addition, the “cGMP accumulation, agonist activity in words” value in experiment [2] was “level comparable to the known control molecules”.
As for `CC[C@H](C)[C@@H]1NC(=O)[C@H](CCCNC(=N)N)NC(=O)[C@H](CC(=O)O)NC(=O)[C@H](CCSC)NC(=O)[C@H](CCCNC(=N)N)NC(=O)CNC(=O)CNC(=O)[C@H](Cc2ccccc2)NC(=O)[C@@H](NC(=O)[C@H](CO)NC(=O)[C@H](CO)NC(=O)[C@H](CCCNC(=N)N)NC(=O)[C@H](CCCNC(=N)N)NC(=O)[C@H](CC(C)C)NC(=O)[C@@H](N)CO)CSSC[C@@H](C(=O)N[C@@H](CC(N)=O)C(=O)N[C@@H](CO)C(=O)N[C@@H](Cc2ccccc2)C(=O)N[C@@H](CCCNC(=N)N)C(=O)N[C@@H](Cc2ccc(O)cc2)C(=O)O)NC(=O)CNC(=O)[C@H](CC(C)C)NC(=O)CNC(=O)[C@H](CO)NC(=O)[C@H](CCC(N)=O)NC(=O)[C@H](C)NC(=O)CNC1=O` [Carperitide, reference compound], the heart rate change entry in experiment [1] is “less pronounced”.
Regarding “SLRRSSCFGGRMDRIGAQSGLGCNSFRELNWLRPLMEQPLLSLME (disulfide 7-23) [ANP-45]”, the heart rate change result in experiment [1] is listed as “decrease in heart rate”. Besides, the “absolute change of mean arterial pressure (MAP-infusion minus MAP-baseline)” value in experiment [1] (setting [4]) was −28 mmHg. In experiment [1] (setting [5]), the “absolute change of mean arterial pressure (MAP-infusion minus MAP-baseline)” value is recorded as −37 mmHg and the “urine volume (diuresis)” value is recorded as “pronounced diuresis, similar in magnitude to that of Carperitide”. In addition, in experiment [1] (setting [6]), the “urinary sodium excretion (natriuresis)” value is listed as “dose-dependent increase in urinary sodium excretion” and the “urine volume (diuresis), dose dependence” value is “dose-dependent increase in urine volume”. In addition, the “cGMP accumulation, agonist activity in words” value in experiment [2] is “level comparable to the known control molecules”.
Regarding `CC[C@H](C)[C@@H]1NC(=O)[C@H](CCCNC(=N)N)NC(=O)[C@H](CC(=O)O)NC(=O)[C@H](CCSC)NC(=O)[C@H](CCCNC(=N)N)NC(=O)CNC(=O)CNC(=O)[C@H](Cc2ccccc2)NC(=O)[C@@H](NC(=O)[C@H](CO)NC(=O)[C@H](CO)NC(=O)[C@H](CCCNC(=N)N)NC(=O)[C@H](CCCNC(=N)N)NC(=O)[C@H](CC(C)C)NC(=O)[C@@H](N)CO)CSSC[C@@H](C(=O)N[C@@H](CC(N)=O)C(=O)N[C@@H](CO)C(=O)N[C@@H](Cc2ccccc2)C(=O)N[C@@H](CCCNC(=N)N)C(=O)N[C@@H](Cc2ccc(O)cc2)C(=O)O)NC(=O)CNC(=O)[C@H](CC(C)C)NC(=O)CNC(=O)[C@H](CO)NC(=O)[C@H](CCC(N)=O)NC(=O)[C@H](C)NC(=O)CNC1=O` [ANP-28, reference compound], in experiment [1] (listed as ANP28), the heart rate change result is reported as “decrease in heart rate”.

B1: ANP-45 (variant) (peptide)
peptide: SLRRSSCFGGRMDRIGAQSGLGCNSFRELNWLRPLMEQPLLSLME
modifications: disulfide 7-23
With B1, the “cGMP accumulation after activation of membrane-bound guanylyl cyclase (EIA), EC50” value in experiment [3] was 86.3 nM.

B2: ANP-49 (variant) (peptide)
peptide: TAPRSLRRSSCFGGRMDRIGAQSGLGCNSFRELNWLRPLMEQPLLSLME
modifications: disulfide 11-27
B2: the “cGMP accumulation after activation of membrane-bound guanylyl cyclase (EIA), EC50” value in experiment [3] was determined as 138 nM.
